Measured values reported in patent US9757393B2 (priority 2015, dated 2017).

Columns and labels:
HFD-fed C57BL/6J mice [1] = assay: Body weight, food intake and tissue weight in HFD-fed mice; type: in vivo; conditions: for Absolute Tissue Weight BAT / Absolute Tissue Weight EWAT / Absolute Tissue Weight Liver / Absolute Tissue Weight MWAT / Absolute Tissue Weight RWAT / Absolute Tissue Weight Skeletal muscle / weight gain: oral gavage daily for 4 weeks; for weight of visceral fat: vs HF group
Procedure: (§1) Experimental Animals: the experiments are conducted under the guidelines of the Institutional Animal Care and Use Committee of Central Taiwan University of Science and Technology. As previously described, four-week-old male C57BL/6J mice (n=63) is purchased from the National Laboratory Animal Breeding and Research Center, Ministry of Science and Technology. After 1-week of acclimatization, mice are designed to initiate the study, and the study lasts for 12 weeks. […] The CON group and high-fat control (HF) group are given with vehicle only. The low-fat diet consisted of fat 10%, whereas the high-fat diet (HFD) consisted of fat 45% (of total energy, % kcal). The compositions of the experimental diets are shown as described. At the end of the study, food is derived from the animals (from 10 p.m. to 10 a.m.). On the next day, the mice are sacrificed, and blood and tissue are collected for analysis. Livers, skeletal muscles, and white adipose tissues (WATs) (including epididymal, mesenteric and retroperitoneal WAT) are excised and weighed, and then immediately stored in a freezer at −80° C. Heparin (30 units/mL) (Sigma) is added to blood samples. Plasma samples are collected by centrifugation at 1600 g for 15 min at 4° C. within 30 min, and plasma is obtained for insulin and leptin level analysis.
Body Weight, Food Intake and Tissue Weight. Throughout the embodiment, body weight and food intake are daily recorded at the same time. Body weight gain is defined as the difference between 1 day and the next day. The pellet food is weighed and placed in a cage food container. After 24 h, the remaining food is weighed and the crumbs are collected as much as possible. Based on the difference between 1 day and the next day, the daily food intake is calculated.

PEPCK mRNA = assay: Semiquantitative RT-PCR, liver tissue: PEPCK; type: in vivo, C57BL/6J mice; conditions: HFD-fed mice
Procedure: as §1
(§2) The experiment is performed as in a previously described protocol. Total RNA from the liver tissue is isolated with a Trizol reagent (Molecular Research Center, Inc., Cincinnati, Ohio, USA) according to the manufacturer's directions. Total RNA (1 μg) is reverse transcribed to cDNA with 5 μL of Moloney murine leukemia virus reverse transcriptase (Epicenter, Madison, Wis., USA) as a previously described protocol. […] The relative density of the band is evaluated using AlphaDigiDoc 1201 software (Alpha Innotech Co., San Leandro, Calif., USA). All of the measured PCR products are normalized to the amount of cDNA of GAPDH in each sample.

SREBP2 mRNA = assay: Semiquantitative RT-PCR, liver tissue: SREBP2; type: in vivo, C57BL/6J mice; conditions: HFD-fed mice
Procedure: as §1, §2

apo C-III mRNA = assay: Semiquantitative RT-PCR, liver tissue: apo C-III; type: in vivo, C57BL/6J mice; conditions: HFD-fed mice
Procedure: as §1, §2

PPARα mRNA = assay: Semiquantitative RT-PCR, liver tissue: PPARα; type: in vivo, C57BL/6J mice; conditions: HFD-fed mice
Procedure: as §1, §2

HFD-fed C57BL/6J mice [2] = assay: Blood glucose, HbA1c, blood lipids, insulin and leptin levels in HFD-fed mice; type: in vivo; conditions: for Blood Profiles FFA / Blood Profiles HDL-C / Blood Profiles HbA1c / Blood Profiles LDL-C: oral gavage daily for 4 weeks; for blood glucose levels / blood insulin levels / blood leptin levels / blood total cholesterol (TC) levels / blood triglyceride (TG) level: vs HF group
Procedure: as §1
Blood Glucose and HbA1c Levels. Blood samples (0.8 mL) are collected from the retro-orbital sinuses of fasting mice, and glucose level is measured by the glucose oxidase method (model 1500; Sidekick Glucose Analyzer; YSI Inc., Yellow Springs, Ohio, USA). Percent HbA1c is detected with a Hemoglobin A1c kit (BioSystems S.A., Barcelona, Spain). Plasma triglycerides (TG), total cholesterol (TC), free fatty acids (FFA), high-density lipoprotein cholesterol (HDL-C), and low density lipoprotein cholesterol (LDL-C) are determined using commercial assay kits (Triglycerides-E test, Cholesterol-E test, and FFA-C test, Wako Pure Chemical, Osaka, Japan; HDL-C-test and LDL-C-test, Roche Diagnostics GmbH, Indianapolis, USA) according to their instructions. A mouse insulin ELISA kit (Sibayagi, Gunma, Japan) and mouse leptin ELISA kit (Morinaga, Yokohama, Japan) are used to measure blood insulin and leptin levels, respectively.

Compound: CC(C)[C@@H](C)C=C[C@@H](C)[C@H]1CC[C@H]2C3=CCC4C[C@@H](O)CC[C@]4(C)C3=CC[C@]12C (stereo partly drawn) [ergostatrien-3β-ol, ergosta-7,9(11),22-trien-3β-ol]
- food intake (consumption of high-fat diet) (HFD-fed C57BL/6J mice [1]; all treated groups compared with HF mice): similarly
- Absolute Tissue Weight BAT (HFD-fed C57BL/6J mice [1]; 10 mg/kg/day): 0.160 ± 0.007 g
- Absolute Tissue Weight EWAT (HFD-fed C57BL/6J mice [1]; 10 mg/kg/day): 0.853 ± 0.031 g
- Absolute Tissue Weight Liver (HFD-fed C57BL/6J mice [1]; 10 mg/kg/day): 0.813 ± 0.025 g
- Absolute Tissue Weight MWAT (HFD-fed C57BL/6J mice [1]; 10 mg/kg/day): 0.276 ± 0.032 g
- Absolute Tissue Weight RWAT (HFD-fed C57BL/6J mice [1]; 10 mg/kg/day): 0.281 ± 0.016 g
- Absolute Tissue Weight Skeletal muscle (HFD-fed C57BL/6J mice [1]; 10 mg/kg/day): 0.781 ± 0.034 g
- weight gain (HFD-fed C57BL/6J mice [1]; 10 mg/kg/day): 1.30 ± 0.39 g
- Absolute Tissue Weight BAT (HFD-fed C57BL/6J mice [1]; 20 mg/kg/day): 0.143 ± 0.016 g
- Absolute Tissue Weight EWAT (HFD-fed C57BL/6J mice [1]; 20 mg/kg/day): 0.774 ± 0.057 g
- Absolute Tissue Weight Liver (HFD-fed C57BL/6J mice [1]; 20 mg/kg/day): 0.819 ± 0.025 g
- Absolute Tissue Weight MWAT (HFD-fed C57BL/6J mice [1]; 20 mg/kg/day): 0.276 ± 0.032 g
- Absolute Tissue Weight RWAT (HFD-fed C57BL/6J mice [1]; 20 mg/kg/day): 0.283 ± 0.025 g
- Absolute Tissue Weight Skeletal muscle (HFD-fed C57BL/6J mice [1]; 20 mg/kg/day): 1.167 ± 0.045 g
- weight gain (HFD-fed C57BL/6J mice [1]; 20 mg/kg/day): 1.13 ± 0.20 g
- Absolute Tissue Weight BAT (HFD-fed C57BL/6J mice [1]; 40 mg/kg/day): 0.144 ± 0.013 g
- Absolute Tissue Weight EWAT (HFD-fed C57BL/6J mice [1]; 40 mg/kg/day): 0.736 ± 0.070 g
- Absolute Tissue Weight Liver (HFD-fed C57BL/6J mice [1]; 40 mg/kg/day): 0.796 ± 0.041 g
- Absolute Tissue Weight MWAT (HFD-fed C57BL/6J mice [1]; 40 mg/kg/day): 0.244 ± 0.024 g
- Absolute Tissue Weight RWAT (HFD-fed C57BL/6J mice [1]; 40 mg/kg/day): 0.243 ± 0.041 g
- Absolute Tissue Weight Skeletal muscle (HFD-fed C57BL/6J mice [1]; 40 mg/kg/day): 1.351 ± 0.153 g
- weight gain (HFD-fed C57BL/6J mice [1]; 40 mg/kg/day): 0.37 ± 0.38 g
- weight of visceral fat (HFD-fed C57BL/6J mice [1]; 10 mg/kg/day): decrease
- weight of visceral fat (HFD-fed C57BL/6J mice [1]; 20 mg/kg/day): decrease
- weight of visceral fat (HFD-fed C57BL/6J mice [1]; 40 mg/kg/day): decrease
- mRNA level of PEPCK (PEPCK mRNA; 10 mg/kg/day): decreased
- mRNA level of PEPCK (PEPCK mRNA; 20 mg/kg/day): decreased
- mRNA level of PEPCK (PEPCK mRNA; 40 mg/kg/day): decreased
- mRNA level of SREBP2 (SREBP2 mRNA; 10 mg/kg/day): decreased
- mRNA level of SREBP2 (SREBP2 mRNA; 20 mg/kg/day): decreased
- mRNA level of SREBP2 (SREBP2 mRNA; 40 mg/kg/day): decreased
- mRNA level of apo C-III (apo C-III mRNA; 10 mg/kg/day): decreased
- mRNA level of apo C-III (apo C-III mRNA; 20 mg/kg/day): decreased
- mRNA level of apo C-III (apo C-III mRNA; 40 mg/kg/day): decreased
- mRNA level of PPARα (PPARα mRNA; 10 mg/kg/day): increase
- mRNA level of PPARα (PPARα mRNA; 20 mg/kg/day): increase
- mRNA level of PPARα (PPARα mRNA; 40 mg/kg/day): increase
- levels of TG (circulating) (HFD-fed C57BL/6J mice [2]; dose not specified): moderate reduction
- Blood Profiles FFA (HFD-fed C57BL/6J mice [2]; 10 mg/kg/day): 1.06 ± 0.10 meq/L
- Blood Profiles HDL-C (HFD-fed C57BL/6J mice [2]; 10 mg/kg/day): 82.2 ± 3.9 mg/dL
- Blood Profiles HbA1c (HFD-fed C57BL/6J mice [2]; 10 mg/kg/day): 5.8 ± 0.7 %
- Blood Profiles FFA (HFD-fed C57BL/6J mice [2]; 20 mg/kg/day): 1.05 ± 0.09 meq/L
- Blood Profiles HDL-C (HFD-fed C57BL/6J mice [2]; 20 mg/kg/day): 83.0 ± 2.0 mg/dL
- Blood Profiles HbA1c (HFD-fed C57BL/6J mice [2]; 20 mg/kg/day): 5.7 ± 0.5 %
- Blood Profiles LDL-C (HFD-fed C57BL/6J mice [2]; 20 mg/kg/day): 103.7 ± 10.8 mg/dL
- Blood Profiles FFA (HFD-fed C57BL/6J mice [2]; 40 mg/kg/day): 1.03 ± 0.05 meq/L
- Blood Profiles HDL-C (HFD-fed C57BL/6J mice [2]; 40 mg/kg/day): 83.8 ± 1.6 mg/dL
- Blood Profiles HbA1c (HFD-fed C57BL/6J mice [2]; 40 mg/kg/day): 5.1 ± 0.3 %
- Blood Profiles LDL-C (HFD-fed C57BL/6J mice [2]; 40 mg/kg/day): 86.8 ± 11.5 mg/dL
- blood glucose levels (HFD-fed C57BL/6J mice [2]; 10 mg/kg/day): significantly reduce
- blood insulin levels (HFD-fed C57BL/6J mice [2]; 10 mg/kg/day): decrease
- blood leptin levels (HFD-fed C57BL/6J mice [2]; 10 mg/kg/day): decrease
- blood total cholesterol (TC) levels (HFD-fed C57BL/6J mice [2]; 10 mg/kg/day): lower
- blood triglyceride (TG) level (HFD-fed C57BL/6J mice [2]; 10 mg/kg/day): decrease
- blood glucose levels (HFD-fed C57BL/6J mice [2]; 20 mg/kg/day): significantly reduce
- blood insulin levels (HFD-fed C57BL/6J mice [2]; 20 mg/kg/day): decrease
- blood leptin levels (HFD-fed C57BL/6J mice [2]; 20 mg/kg/day): decrease
- blood total cholesterol (TC) levels (HFD-fed C57BL/6J mice [2]; 20 mg/kg/day): lower
- blood triglyceride (TG) level (HFD-fed C57BL/6J mice [2]; 20 mg/kg/day): decrease
- blood glucose levels (HFD-fed C57BL/6J mice [2]; 40 mg/kg/day): significantly reduce
- blood insulin levels (HFD-fed C57BL/6J mice [2]; 40 mg/kg/day): decrease
- blood leptin levels (HFD-fed C57BL/6J mice [2]; 40 mg/kg/day): decrease
- blood total cholesterol (TC) levels (HFD-fed C57BL/6J mice [2]; 40 mg/kg/day): lower
- blood triglyceride (TG) level (HFD-fed C57BL/6J mice [2]; 40 mg/kg/day): decrease
